The text below walks through data of patent US10112899B2 (ViiV HEALTHCARE UK LIMITED, priority 2014, dated 2018).

SMILES strings stand for the structures. pIC50: −log10 of the molar value.

For this test, the system named is HIV in the HTLV-1 transformed cell line MT-4. The experiment in a line: organism not typed. The test is classed as cell-based. As to conditions: MT4, 96 h, MT-4 cells; luciferase/cell titer glo readout after 96 hours; 10 point dose response. For orientation: ATP-based viability assays read luminescence as a measure of living cells.
With `Cc1c(-c2c(C)c3c(c(C)c2[C@H](OC(C)(C)C)C(=O)O)CN(C(=O)c2cccc(F)c2F)C3)cc(F)c2c1CCCO2` (atropisomer, axis not shown; (M)) [Example 176, (S)-2-(tert-butoxy)-2-((M)-2-(2,3-difluorobenzoyl)-6-(8-fluoro-5-methylchroman-6-yl)-4,7-dimethylisoindolin-5-yl)acetic acid], the pIC50 (as a rule, −log10 of the IC50, conventionally taken in molar units) is 8.40.
As for `Cc1ccc(F)cc1C(=O)N1Cc2c(C)c(-c3cc(F)c4c(c3C)CCCO4)c([C@H](OC(C)(C)C)C(=O)O)c(C)c2C1` (atropisomer, axis not shown; (M)) [Example 177, (S)-2-(tert-butoxy)-2-((M)-2-(5-fluoro-2-methylbenzoyl)-6-(8-fluoro-5-methylchroman-6-yl)-4,7-dimethylisoindolin-5-yl)acetic acid], the figure is 8.70.
In the case of `Cc1cc(F)cc(C(=O)N2Cc3c(C)c(-c4cc(F)c5c(c4C)CCCO5)c([C@H](OC(C)(C)C)C(=O)O)c(C)c3C2)c1` (atropisomer, axis not shown; (M)) [Example 178, (S)-2-(tert-butoxy)-2-((M)-2-(3-fluoro-5-methylbenzoyl)-6-(8-fluoro-5-methylchroman-6-yl)-4,7-dimethylisoindolin-5-yl)acetic acid], the negative logarithm of the IC50 (pIC50) is 8.70.
For `COc1ccc(F)c(C(=O)N2Cc3c(C)c(-c4cc(F)c5c(c4C)CCCO5)c([C@H](OC(C)(C)C)C(=O)O)c(C)c3C2)c1` (atropisomer, axis not shown; (M)) [Example 179, (S)-2-(tert-butoxy)-2-((M)-2-(2-fluoro-5-methoxybenzoyl)-6-(8-fluoro-5-methylchroman-6-yl)-4,7-dimethylisoindolin-5-yl)acetic acid], the negative logarithm of the IC50 (pIC50) is 8.40.
As for `COc1cc(C(=O)N2Cc3c(C)c(-c4cc(F)c5c(c4C)CCCO5)c([C@H](OC(C)(C)C)C(=O)O)c(C)c3C2)ccc1F` (atropisomer, axis not shown; (M)) [Example 180, (S)-2-(tert-butoxy)-2-((M)-2-(4-fluoro-3-methoxybenzoyl)-6-(8-fluoro-5-methylchroman-6-yl)-4,7-dimethylisoindolin-5-yl)acetic acid], the figure is 8.40; as for `Cc1c(-c2c(C)c3c(c(C)c2[C@H](OC(C)(C)C)C(=O)O)CN(C(=O)c2cc(F)cc(Cl)c2)C3)cc(F)c2c1CCCO2` (atropisomer, axis not shown; (M)) [Example 181, (S)-2-(tert-butoxy)-2-((M)-2-(3-chloro-5-fluorobenzoyl)-6-(8-fluoro-5-methylchroman-6-yl)-4,7-dimethylisoindolin-5-yl)acetic acid], 8.30.
Regarding `Cc1cncc(C(=O)N2Cc3c(C)c(-c4cc(F)c5c(c4C)CCCO5)c([C@H](OC(C)(C)C)C(=O)O)c(C)c3C2)c1` (atropisomer, axis not shown; (M)) [Example 182, (S)-2-(tert-butoxy)-2-((M)-6-(8-fluoro-5-methylchroman-6-yl)-4,7-dimethyl-2-(5-methylnicotinoyl)isoindolin-5-yl)acetic acid], the pIC50 was 8.30.
To `COc1ccc(C)cc1C(=O)N1Cc2c(C)c(-c3cc(F)c4c(c3C)CCCO4)c([C@H](OC(C)(C)C)C(=O)O)c(C)c2C1` (atropisomer, axis not shown; (M)) [Example 183, (S)-2-(tert-butoxy)-2-((M)-6-(8-fluoro-5-methylchroman-6-yl)-2-(2-methoxy-5-methylbenzoyl)-4,7-dimethylisoindolin-5-yl)acetic acid] belongs 8.40; to `Cc1c(-c2c(C)c3c(c(C)c2[C@H](OC(C)(C)C)C(=O)O)CN(C(=O)c2ccccn2)C3)cc(F)c2c1CCCO2` (atropisomer, axis not shown; (M)) [Example 184, (S)-2-(tert-butoxy)-2-((M)-6-(8-fluoro-5-methylchroman-6-yl)-4,7-dimethyl-2-picolinoylisoindolin-5-yl)acetic acid], 8.70; to `Cc1ccc(Cl)cc1C(=O)N1Cc2c(C)c(-c3cc(F)c4c(c3C)CCCO4)c([C@H](OC(C)(C)C)C(=O)O)c(C)c2C1` (atropisomer, axis not shown; (M)) [Example 185, (S)-2-(tert-butoxy)-2-((M)-2-(5-chloro-2-methylbenzoyl)-6-(8-fluoro-5-methylchroman-6-yl)-4,7-dimethylisoindolin-5-yl)acetic acid], 8.40.
To `Cc1c(-c2c(C)c3c(c(C)c2[C@H](OC(C)(C)C)C(=O)O)CN(C(=O)c2ccc(F)c(F)c2)C3)cc(F)c2c1CCCO2` (atropisomer, axis not shown; (M)) [Example 186, (S)-2-(tert-butoxy)-2-((M)-2-(3,4-difluorobenzoyl)-6-(8-fluoro-5-methylchroman-6-yl)-4,7-dimethylisoindolin-5-yl)acetic acid] belongs 8.70.
Regarding `COc1ccc(C(=O)N2Cc3c(C)c(-c4cc(F)c5c(c4C)CCCO5)c([C@H](OC(C)(C)C)C(=O)O)c(C)c3C2)cc1F` (atropisomer, axis not shown; (M)) [Example 187, (S)-2-(tert-butoxy)-2-((M)-2-(3-fluoro-4-methoxybenzoyl)-6-(8-fluoro-5-methylchroman-6-yl)-4,7-dimethylisoindolin-5-yl)acetic acid], the pIC50 was 8.52.
Take `Cc1c(-c2c(C)c3c(c(C)c2[C@H](OC(C)(C)C)C(=O)O)CN(C(=O)c2cc(Cl)c(F)c(Cl)c2)C3)cc(F)c2c1CCCO2` (atropisomer, axis not shown; (M)) [Example 188, (S)-2-(tert-butoxy)-2-((M)-2-(3,5-dichloro-4-fluorobenzoyl)-6-(8-fluoro-5-methylchroman-6-yl)-4,7-dimethylisoindolin-5-yl)acetic acid]: the pIC50 was 8.40.
To `Cc1ccc(C(=O)N2Cc3c(C)c(-c4cc(F)c5c(c4C)CCCO5)c([C@H](OC(C)(C)C)C(=O)O)c(C)c3C2)c(C)c1` (atropisomer, axis not shown; (M)) [Example 189, (S)-2-(tert-butoxy)-2-((M)-2-(2,4-dimethylbenzoyl)-6-(8-fluoro-5-methylchroman-6-yl)-4,7-dimethylisoindolin-5-yl)acetic acid] belongs 8.40; to `Cc1ccc(C(=O)N2Cc3c(C)c(-c4cc(F)c5c(c4C)CCCO5)c([C@H](OC(C)(C)C)C(=O)O)c(C)c3C2)cc1` (atropisomer, axis not shown; (M)) [Example 190, (S)-2-(tert-butoxy)-2-((M)-6-(8-fluoro-5-methylchroman-6-yl)-4,7-dimethyl-2-(4-methylbenzoyl)isoindolin-5-yl)acetic acid], 8.30.
As for `Cc1cc(C)cc(C(=O)N2Cc3c(C)c(-c4cc(F)c5c(c4C)CCCO5)c([C@H](OC(C)(C)C)C(=O)O)c(C)c3C2)c1` (atropisomer, axis not shown; (M)) [Example 191, (S)-2-(tert-butoxy)-2-((M)-2-(3,5-dimethylbenzoyl)-6-(8-fluoro-5-methylchroman-6-yl)-4,7-dimethylisoindolin-5-yl)acetic acid], the figure is 8.70.
As for `COc1ccc(C(=O)N2Cc3c(C)c(-c4cc(F)c5c(c4C)CCCO5)c([C@H](OC(C)(C)C)C(=O)O)c(C)c3C2)cc1C` (atropisomer, axis not shown; (M)) [Example 192, (S)-2-(tert-butoxy)-2-((M)-6-(8-fluoro-5-methylchroman-6-yl)-2-(4-methoxy-3-methylbenzoyl)-4,7-dimethylisoindolin-5-yl)acetic acid], the figure is 8.30; as for `Cc1cccc(C(=O)N2Cc3c(C)c(-c4cc(F)c5c(c4C)CCCO5)c([C@H](OC(C)(C)C)C(=O)O)c(C)c3C2)c1C` (atropisomer, axis not shown; (M)) [Example 193, (S)-2-(tert-butoxy)-2-((M)-2-(2,3-dimethylbenzoyl)-6-(8-fluoro-5-methylchroman-6-yl)-4,7-dimethylisoindolin-5-yl)acetic acid], 8.30.
`Cc1c(-c2c(C)c3c(c(C)c2[C@H](OC(C)(C)C)C(=O)O)CN(C(=O)c2cc(F)c(F)c(Cl)c2)C3)cc(F)c2c1CCCO2` (atropisomer, axis not shown; (M)) [Example 194, (S)-2-(tert-butoxy)-2-((M)-2-(3-chloro-4,5-difluorobenzoyl)-6-(8-fluoro-5-methylchroman-6-yl)-4,7-dimethylisoindolin-5-yl)acetic acid] had a pIC50 of 7.96.
To `COc1c(F)cccc1C(=O)N1Cc2c(C)c(-c3cc(F)c4c(c3C)CCCO4)c([C@H](OC(C)(C)C)C(=O)O)c(C)c2C1` (atropisomer, axis not shown; (M)) [Example 195, (S)-2-(tert-butoxy)-2-((M)-2-(3-fluoro-2-methoxybenzoyl)-6-(8-fluoro-5-methylchroman-6-yl)-4,7-dimethylisoindolin-5-yl)acetic acid] belongs 8.52; to `COc1ccc(C(=O)N2Cc3c(C)c(-c4cc(F)c5c(c4C)CCCO5)c([C@H](OC(C)(C)C)C(=O)O)c(C)c3C2)cc1` (atropisomer, axis not shown; (M)) [Example 196, (S)-2-(tert-butoxy)-2-((M)-6-(8-fluoro-5-methylchroman-6-yl)-2-(4-methoxybenzoyl)-4,7-dimethylisoindolin-5-yl)acetic acid], 8.70; to `Cc1cccc(F)c1C(=O)N1Cc2c(C)c(-c3cc(F)c4c(c3C)CCCO4)c([C@H](OC(C)(C)C)C(=O)O)c(C)c2C1` (atropisomer, axis not shown; (M)) [Example 197, (S)-2-(tert-butoxy)-2-((M)-6-(8-fluoro-5-methylchroman-6-yl)-2-(2-fluoro-6-methylbenzoyl)-4,7-dimethylisoindolin-5-yl)acetic acid], 8.40.
As for `Cc1c(-c2c(C)c3c(c(C)c2[C@H](OC(C)(C)C)C(=O)O)CN(C(=O)c2ccc(Cl)cc2)C3)cc(F)c2c1CCCO2` (atropisomer, axis not shown; (M)) [Example 198, (S)-2-(tert-butoxy)-2-((M)-2-(4-chlorobenzoyl)-6-(8-fluoro-5-methylchroman-6-yl)-4,7-dimethylisoindolin-5-yl)acetic acid], the figure is 8.30.
